Test results from ChEMBL document CHEMBL4033730, “Thiosemicarbazones as inhibitors of tyrosinase enzyme” (Bioorg Med Chem Lett, 2017).
Calls of active or inactive are those of the source. The rule behind the calls is not given here.

Legend:
[1] = biological target: T1, Mushroom tyrosinase (Agaricus bisporus, UniProt O42713+Q00024+C7FF04+C7FF05); assay: Inhibition of Agaricus bisporus tyrosinase assessed as reduction in diphenolase activity by measuring L-DOPA oxidation after 30 mins
[2] = biological target: T2, Mushroom tyrosinase (Agaricus bisporus) (UniProt O42713+Q00024+C7FF04+C7FF05); assay: Inhibition of Agaricus bisporus tyrosinase assessed as reduction in diphenolase activity by measuring L-DOPA oxidation at 0.44 mM after 30 mins
[3] = biological target: T2, Mushroom tyrosinase (Agaricus bisporus); assay: Inhibition of Agaricus bisporus tyrosinase assessed as reduction in diphenolase activity by measuring L-DOPA oxidation at 1.33 mM after 30 mins
[4] = biological target: T2, Mushroom tyrosinase (Agaricus bisporus); assay: Inhibition of Agaricus bisporus tyrosinase assessed as reduction in diphenolase activity by measuring L-DOPA oxidation at 2.22 mM after 30 mins
[5] = biological target: T2, Mushroom tyrosinase (Agaricus bisporus); assay: Inhibition of Agaricus bisporus tyrosinase assessed as reduction in diphenolase activity by measuring L-DOPA oxidation at 2.67 mM after 30 mins
[6] = biological target: T1, Mushroom tyrosinase; assay: Competitive inhibition of Agaricus bisporus tyrosinase assessed as reduction in diphenolase activity by measuring L-DOPA oxidation at 1.6 mM after 30 mins by Lineweaver-Burk plot
[7] = biological target: T2, Mushroom tyrosinase (Agaricus bisporus); assay: Competitive inhibition of Agaricus bisporus tyrosinase assessed as reduction in diphenolase activity by measuring L-DOPA oxidation at 1.6 mM after 30 mins UV-visible specroscopy
[8] = biological target: T2, Mushroom tyrosinase (Agaricus bisporus); assay: Inhibition of Agaricus bisporus tyrosinase assessed as reduction in diphenolase activity by measuring L-DOPA oxidation at 0.29 mM after 30 mins
[9] = biological target: T2, Mushroom tyrosinase (Agaricus bisporus); assay: Inhibition of Agaricus bisporus tyrosinase assessed as reduction in diphenolase activity by measuring L-DOPA oxidation at 0.89 mM after 30 mins
[10] = biological target: T2, Mushroom tyrosinase (Agaricus bisporus); assay: Inhibition of Agaricus bisporus tyrosinase assessed as reduction in diphenolase activity by measuring L-DOPA oxidation at 0.15 mM after 30 mins
[11] = biological target: T2, Mushroom tyrosinase (Agaricus bisporus); assay: Inhibition of Agaricus bisporus tyrosinase assessed as reduction in diphenolase activity by measuring L-DOPA oxidation at 1.78 mM after 30 mins
[12] = biological target: T2, Mushroom tyrosinase (Agaricus bisporus); assay: Inhibition of Agaricus bisporus tyrosinase assessed as reduction in diphenolase activity by measuring L-DOPA oxidation at 1.6 mM after 0 to 70 mins by UV-visible specroscopy
[13] = biological target: T1, Mushroom tyrosinase; assay: […] inhibition of Agaricus bisporus tyrosinase assessed as reduction in diphenolase activity by measuring L-DOPA oxidation at 1.6 mM after 30 mins by Lineweaver-Burk plot
[14] = system: NC(=S)N/N=C/c1ccc(Br)cc1; assay: (§1) Inhibition of Agaricus bisporus tyrosinase assessed as reduction in diphenolase activity by measuring apparent Km for L-DOPA oxidation at 1.6 mM after 30 mins by Lineweaver-Burk plot
[15] = system: CCOc1ccc(/C=N/NC(N)=S)cc1; assay: as §1
[16] = system: COc1ccc(/C=N/NC(N)=S)cc1; assay: as §1
[17] = system: NC(=S)N/N=C/c1ccc(Cl)cc1; assay: as §1
[18] = system: COc1cc(/C=N/NC(N)=S)ccc1O; assay: as §1
[19] = system: NC(=S)N/N=C/c1ccc(O)cc1; assay: as §1
[20] = system: NC(=S)N/N=C/c1ccccc1; assay: as §1
[21] = system: NC(=S)N/N=C/c1ccc(NC(=S)N/N=C/c2ccccn2)cc1; assay: as §1
[22] = system: NC(=S)N/N=C/c1ccc(Br)cc1; assay: (§2) Inhibition of Agaricus bisporus tyrosinase assessed as reduction in diphenolase activity by measuring Vmax for L-DOPA oxidation at 1.6 mM after 30 mins by Lineweaver-Burk plot
[23] = system: CCOc1ccc(/C=N/NC(N)=S)cc1; assay: as §2
[24] = system: COc1ccc(/C=N/NC(N)=S)cc1; assay: as §2
[25] = system: NC(=S)N/N=C/c1ccc(Cl)cc1; assay: as §2
[26] = system: COc1cc(/C=N/NC(N)=S)ccc1O; assay: as §2
[27] = system: NC(=S)N/N=C/c1ccc(O)cc1; assay: as §2
[28] = system: NC(=S)N/N=C/c1ccccc1; assay: as §2
[29] = system: NC(=S)N/N=C/c1ccc(NC(=S)N/N=C/c2ccccn2)cc1; assay: as §2
[30] = biological target: T1, Mushroom tyrosinase; assay: Uncompetitive inhibition of Agaricus bisporus tyrosinase assessed as reduction in diphenolase activity by measuring L-DOPA oxidation at 1.6 mM after 30 mins by Lineweaver-Burk plot

Sequence of Mushroom tyrosinase (Agaricus bisporus) (from UniProt O42713+Q00024+C7FF04+C7FF05) (C7FF05 whole entry, looked up): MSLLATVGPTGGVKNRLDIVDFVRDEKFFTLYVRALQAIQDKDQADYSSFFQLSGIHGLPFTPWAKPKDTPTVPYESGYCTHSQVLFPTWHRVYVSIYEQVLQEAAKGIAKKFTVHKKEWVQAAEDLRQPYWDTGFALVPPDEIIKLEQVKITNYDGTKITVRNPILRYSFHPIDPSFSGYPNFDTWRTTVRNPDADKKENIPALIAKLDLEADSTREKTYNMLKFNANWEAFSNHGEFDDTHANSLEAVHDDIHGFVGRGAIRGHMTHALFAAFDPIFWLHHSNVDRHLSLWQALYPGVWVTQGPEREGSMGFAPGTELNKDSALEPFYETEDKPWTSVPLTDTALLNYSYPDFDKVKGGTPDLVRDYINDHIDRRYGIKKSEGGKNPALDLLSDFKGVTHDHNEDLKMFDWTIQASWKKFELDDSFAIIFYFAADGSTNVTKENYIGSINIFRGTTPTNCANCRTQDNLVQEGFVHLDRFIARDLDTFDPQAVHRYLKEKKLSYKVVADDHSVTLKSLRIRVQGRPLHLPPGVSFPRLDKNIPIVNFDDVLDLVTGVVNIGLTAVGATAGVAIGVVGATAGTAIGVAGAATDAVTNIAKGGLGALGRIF
Sequence of Mushroom tyrosinase (Agaricus bisporus) (from UniProt O42713+Q00024+C7FF04+C7FF05) (C7FF04 whole entry, looked up): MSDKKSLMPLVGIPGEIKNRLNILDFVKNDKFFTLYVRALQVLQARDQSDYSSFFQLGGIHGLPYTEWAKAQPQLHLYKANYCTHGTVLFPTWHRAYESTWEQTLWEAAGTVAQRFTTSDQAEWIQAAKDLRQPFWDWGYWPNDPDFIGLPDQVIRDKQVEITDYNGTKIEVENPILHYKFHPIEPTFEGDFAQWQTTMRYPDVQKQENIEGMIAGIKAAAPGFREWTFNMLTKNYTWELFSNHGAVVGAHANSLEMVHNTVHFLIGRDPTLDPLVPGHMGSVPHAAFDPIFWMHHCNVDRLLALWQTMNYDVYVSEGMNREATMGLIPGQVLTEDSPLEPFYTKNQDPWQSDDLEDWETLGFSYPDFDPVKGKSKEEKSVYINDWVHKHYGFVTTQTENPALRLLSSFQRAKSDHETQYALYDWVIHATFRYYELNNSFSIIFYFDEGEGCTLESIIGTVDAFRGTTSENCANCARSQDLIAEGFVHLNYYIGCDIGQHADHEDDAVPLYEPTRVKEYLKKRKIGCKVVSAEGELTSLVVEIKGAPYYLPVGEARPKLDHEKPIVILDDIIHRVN
Sequence of Mushroom tyrosinase (Agaricus bisporus) (from UniProt O42713+Q00024+C7FF04+C7FF05) (Q00024 whole entry, looked up): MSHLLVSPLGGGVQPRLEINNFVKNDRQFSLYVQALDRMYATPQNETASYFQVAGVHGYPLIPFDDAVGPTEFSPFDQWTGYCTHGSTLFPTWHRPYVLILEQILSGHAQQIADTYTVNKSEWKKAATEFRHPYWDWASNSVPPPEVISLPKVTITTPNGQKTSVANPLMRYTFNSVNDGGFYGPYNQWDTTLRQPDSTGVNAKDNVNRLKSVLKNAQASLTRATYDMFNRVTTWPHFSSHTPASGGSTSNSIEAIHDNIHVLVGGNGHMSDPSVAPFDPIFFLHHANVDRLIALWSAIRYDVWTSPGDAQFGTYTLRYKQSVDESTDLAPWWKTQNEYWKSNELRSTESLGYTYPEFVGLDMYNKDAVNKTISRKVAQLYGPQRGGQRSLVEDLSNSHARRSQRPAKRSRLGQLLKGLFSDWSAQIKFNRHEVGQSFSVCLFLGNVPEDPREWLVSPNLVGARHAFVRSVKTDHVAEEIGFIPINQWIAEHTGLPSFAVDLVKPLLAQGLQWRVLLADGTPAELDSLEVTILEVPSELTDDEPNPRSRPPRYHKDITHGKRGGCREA
Sequence of Mushroom tyrosinase (Agaricus bisporus) (from UniProt O42713+Q00024+C7FF04+C7FF05) (O42713 whole entry, looked up): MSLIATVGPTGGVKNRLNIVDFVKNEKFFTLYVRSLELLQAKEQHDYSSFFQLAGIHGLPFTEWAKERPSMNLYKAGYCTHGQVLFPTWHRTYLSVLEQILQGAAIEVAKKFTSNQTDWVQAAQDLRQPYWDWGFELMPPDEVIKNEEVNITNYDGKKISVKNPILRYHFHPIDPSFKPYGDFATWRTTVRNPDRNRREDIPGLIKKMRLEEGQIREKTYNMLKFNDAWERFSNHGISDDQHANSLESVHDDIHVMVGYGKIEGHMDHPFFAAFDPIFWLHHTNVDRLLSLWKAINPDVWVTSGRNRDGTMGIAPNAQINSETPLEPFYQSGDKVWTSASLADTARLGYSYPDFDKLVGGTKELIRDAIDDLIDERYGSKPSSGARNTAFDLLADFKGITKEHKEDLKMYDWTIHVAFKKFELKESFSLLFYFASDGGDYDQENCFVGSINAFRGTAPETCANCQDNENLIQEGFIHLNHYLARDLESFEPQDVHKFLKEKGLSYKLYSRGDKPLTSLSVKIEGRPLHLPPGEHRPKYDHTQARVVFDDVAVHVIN

Question: How did the IC50 [1] turn out when COc1cc(/C=N/NC(N)=S)ccc1O was run?
Answer: 350 µM

Question: What about the inhibition [2] of the same molecule?
Answer: 59.3%

Question: What about the inhibition [3] of the same molecule?
Answer: 89.2%

Question: And the inhibition [4]?
Answer: 94.6%

Question: And the inhibition [5]?
Answer: 93.8%

Question: And the Ki [6]?
Answer: 60 µM

Question: What about the inhibition [7] of the same molecule?
Answer: Active

Question: And the inhibition [8]?
Answer: 45.7%

Question: What about the inhibition [9] of the same molecule?
Answer: 79.2%

Question: What about the inhibition [10] of the same molecule?
Answer: 24%

Question: What about the inhibition [11] of the same molecule?
Answer: 92.8%

Question: What about the inhibition [12] of the same molecule?
Answer: Active

Question: What does the source list for NC(=S)N/N=C/c1ccc(Cl)cc1?
Answer: IC50 [1]: 840 µM; Ki [6]: 1300 µM

Question: With CCOc1ccc(/C=N/NC(N)=S)cc1 as the molecule, how does the IC50 [1] read?
Answer: 360 µM

Question: And the Ki [6]?
Answer: 60 µM

Question: What about the inhibition [12] of the same molecule?
Answer: Active

Question: Which results are given for NC(=S)N/N=C/c1ccccc1 [PHENYLTHIOSEMICARBAZONE]?
Answer: IC50 [1]: 820 µM; Ki [13]: 4500 µM; inhibition [12]: Active

Question: “Mushroom tyrosinase (Agaricus bisporus) (from UniProt O42713+Q00024+C7FF04+C7FF05)” was tested. Which Km [14] did it give?
Answer: 0.5 mM

Question: What about the Km [15] of the same molecule?
Answer: 21.7 mM

Question: And the Km [16]?
Answer: 26.3 mM

Question: What about the Km [17] of the same molecule?
Answer: 1.9 mM

Question: What about the Km [18] of the same molecule?
Answer: 22.4 mM

Question: And the Km [19]?
Answer: 0.7 mM

Question: What about the Km [20] of the same molecule?
Answer: 0.8 mM

Question: And the Km [21]?
Answer: 8.3 mM

Question: What about the Vmax [22] of the same molecule?
Answer: 16.6 mM/min

Question: And the Vmax [23]?
Answer: 38.4 mM/min

Question: And the Vmax [24]?
Answer: 34.8 mM/min

Question: What about the Vmax [25] of the same molecule?
Answer: 39.7 mM/min

Question: What about the Vmax [26] of the same molecule?
Answer: 48.1 mM/min

Question: What about the Vmax [27] of the same molecule?
Answer: 9.5 mM/min

Question: What about the Vmax [28] of the same molecule?
Answer: 18.9 mM/min

Question: What about the Vmax [29] of the same molecule?
Answer: 27.1 mM/min

Question: NC(=S)N/N=C/c1ccc(Br)cc1 was tested. Which IC50 [1] did it give?
Answer: 1420 µM

Question: What about the Ki [30] of the same molecule?
Answer: 600 µM

Question: And the inhibition [12]?
Answer: Active

Question: For COc1ccc(/C=N/NC(N)=S)cc1, which IC50 [1] is on record?
Answer: 440 µM

Question: What about the Ki [6] of the same molecule?
Answer: 50 µM

Question: What about the inhibition [12] of the same molecule?
Answer: Active

Question: With NC(=S)N/N=C/c1ccc(O)cc1 as the molecule, how does the inhibition [12] read?
Answer: Active

Question: NC(=S)N/N=C/c1ccc(NC(=S)N/N=C/c2ccccn2)cc1 was tested. Which IC50 [1] did it give?
Answer: 1190 µM

Question: What about the Ki [6] of the same molecule?
Answer: 200 µM

Question: What about the inhibition [12] of the same molecule?
Answer: Active
